The record followed here is PubChem BioAssay AID1259407 (Chemical Carcinogenesis Research Information System (CCRIS), 2018).

Active and inactive are the calls of the source. No rule for the calls is given here.

The test system of this series is CCRIS mutagenicity, Ames/micronucleus/aberration tests. Kind of series: CCRIS mutagenicity studies.
Where [1] appears, read: Test System: AMES SALMONELLA TYPHIMURIUM, Strain/Indicator: TA100, Metabolic Activation: RAT, LIVER, S-9, AROCLOR 1254, Method: STANDARD PLATE.
Setting [2] is: Test System: AMES SALMONELLA TYPHIMURIUM, Strain/Indicator: TA1535, Metabolic Activation: NONE, Method: STANDARD PLATE.
Where [3] appears, read: Test System: AMES SALMONELLA TYPHIMURIUM, Strain/Indicator: TA1535, Metabolic Activation: RAT, LIVER, S-9, AROCLOR 1254, Method: STANDARD PLATE.

As for `Cc1ccc2c(c1Nc1ccccc1)C(=O)c1ccccc1C2=O`, the mutagenic call by setting is: (Test System: AMES SALMONELLA TYPHIMURIUM, Strain/Indicator: TA98, Metabolic Activation: NONE, Method: STANDARD PLATE) “inactive; negative”; (Test System: AMES SALMONELLA TYPHIMURIUM, Strain/Indicator: TA98, Metabolic Activation: RAT, LIVER, S-9, AROCLOR 1254, Method: STANDARD PLATE) “inactive; negative”; under setting [1], “active; positive”; under setting [2], “inactive; negative”; under setting [3], “inactive; negative”; (Test System: AMES SALMONELLA TYPHIMURIUM, Strain/Indicator: TA1537, Metabolic Activation: NONE, Method: STANDARD PLATE) “inactive; negative”. Also, the mutagenic call reads like this: (Test System: AMES SALMONELLA TYPHIMURIUM, Strain/Indicator: TA1537, Metabolic Activation: RAT, LIVER, S-9, AROCLOR 1254, Method: STANDARD PLATE) “inactive; negative”; (Test System: AMES SALMONELLA TYPHIMURIUM, Strain/Indicator: TA1538, Metabolic Activation: NONE, Method: STANDARD PLATE) “inactive; negative”; (Test System: AMES SALMONELLA TYPHIMURIUM, Strain/Indicator: TA1538, Metabolic Activation: RAT, LIVER, S-9, AROCLOR 1254, Method: STANDARD PLATE) “inactive; negative”.

Take `CC1(C)C2CC3OC3(C)C1C2` (stereo not given): the mutagenic call (Test System: AMES SALMONELLA TYPHIMURIUM, Strain/Indicator: TA100, Metabolic Activation: NONE, Method: STANDARD PLATE) is “inactive; negative”; the mutagenic call under setting [1] was “inactive; negative”; the mutagenic call under setting [2] was “inactive; negative”; the mutagenic call under setting [3] was “inactive; negative”; the mutagenic call (Test System: UDS RAT HEPATOCYTES, Strain/Indicator: THY INCORP, Metabolic Activation: NONE) is “inactive; negative”.

As for `COc1ccc2cc3c4c(cc(OC)c(OC)c4c2c1)CCN3C`, the mutagenic call (Test System: AMES SALMONELLA TYPHIMURIUM, Strain/Indicator: TA100, Metabolic Activation: RAT, LIVER, S-9, PHENOBARBITAL AND BETA-NAPHTHOFLAVONE, Method: PREINCUBATION) was “inactive; negative”.

`Cc1c(N)nc(C(CC(N)=O)NCC(N)C(N)=O)nc1C(=O)NC(C(=O)NC(C)C(O)C(C)C(=O)NC(C(=O)NCCc1nc(-c2nc(C(=O)NCCCCN(CCCCN=C(N)N)C(=N)N)cs2)cs1)C(C)O)C(OC1OC(CO)C(O)C(O)C1OC1OC(CO)C(O)C(OC(N)=O)C1O)c1cnc[nH]1` (stereo not given): the mutagenic call (Test System: AMES SALMONELLA TYPHIMURIUM, Strain/Indicator: TA102, Metabolic Activation: NONE, Method: PREINCUBATION) is “active; positive”.

As to `COc1cc(OC)nc(NC(=O)NS(=O)(=O)c2ncccc2C(=O)N(C)C)n1`, the mutagenic call is “inactive; negative” (Test System: Chinese hamster lung cells, Strain/Indicator: V79 (HPRT)/6-Thioguanine, Metabolic Activation: None, Method: Standard plate?); “inactive; negative” (Test System: Chinese hamster lung cells, Strain/Indicator: V79 (HPRT)/6-Thioguanine, Metabolic Activation: S-9, Method: Standard plate?); “inactive; negative” (Test System: TA97, Metabolic Activation: None, Method: Preincubation?); “inactive; negative” (Test System: TA97, Metabolic Activation: S-9, Method: Preincubation?); “inactive; negative” (Test System: TA98, Metabolic Activation: None, Method: Preincubation?); “inactive; negative” (Test System: TA98, Metabolic Activation: S-9, Method: Preincubation?). Also, the mutagenic call (Test System: TA100, Metabolic Activation: None, Method: Preincubation?) was “inactive; negative”; the mutagenic call (Test System: TA100, Metabolic Activation: S-9, Method: Preincubation?) is “inactive; negative”; the mutagenic call (Test System: TA102, Metabolic Activation: None, Method: Preincubation?) is “inactive; negative”; the mutagenic call (Test System: TA102, Metabolic Activation: S-9, Method: Preincubation?) was “inactive; negative”.

In the case of `Cc1ccc(N=[N+]([O-])c2ccc(C)c([N+](=O)[O-])c2)cc1[N+](=O)[O-]`, the mutagenic call (Test System: AMES SALMONELLA TYPHIMURIUM, Strain/Indicator: TA98, Metabolic Activation: NONE, Method: SUSPENSION/PLATE) was “inactive; negative”; the mutagenic call (Test System: AMES SALMONELLA TYPHIMURIUM, Strain/Indicator: TA98, Metabolic Activation: RAT, LIVER, S-9, PHENOBARBITAL AND 5,6-BENZOFLAVONE, Method: SUSPENSION/PLATE) was “inactive; negative”; the mutagenic call (Test System: AMES SALMONELLA TYPHIMURIUM, Strain/Indicator: TA100, Metabolic Activation: NONE, Method: SUSPENSION/PLATE) was “inactive; negative”; the mutagenic call (Test System: AMES SALMONELLA TYPHIMURIUM, Strain/Indicator: TA100, Metabolic Activation: RAT, LIVER, S-9, PHENOBARBITAL AND 5,6-BENZOFLAVONE, Method: SUSPENSION/PLATE) was “inactive; negative”.
